Experimental findings from patent US11766435B2, “N3-substituted iminopyrimidinones as antimalarial agents” (Merck Sharp & Dohme LLC, priority 2016, dated 2023) are described below.

This experiment deals with asexual P. falciparum 3D7 parasites. Briefly: P. falciparum growth inhibition assay measuring LDH activity (Assay 1). The format is cell-based. Conditions: Plasmodium falciparum, 3D7, Erythrocyte, 72 h, 3D7 strain, parasitized red blood cells, 72 h incubation, LDH activity read by absorbance at 650 nm. Here is the method: A modified version of the assay described in Gamo, F. J., Sanz, L. M., Vidal, J., de Cozar, C., Alvarez, E., Lavandera, J. L., Vanderwall, D. E., Green, D. V., Kumar, V., Hasan, S., Brown, J. R., Peishoff, C. E., Cardon, L. R., Garcia-Bustos, J. F., Nature, 465 (2010) 305-310 (Gamo et al.) was used to assess the activity of compounds against asexual P. falciparum 3D7 parasites. Compounds were pre-dispensed in 384-well plates, RPMI/AlbuMAX growth media was added and P. falciparum inoculated. Plates were incubated for 72 h and then frozen at −80° C. overnight. Lactate dehydrogenase (LDH) activity was quantified with the modified cofactor 3-acetylpyridine adenine dinucleotide (APAD) (Sigma Aldrich) by measuring absorbance of the tetrazolium indicator nitro blue tetrazolium (NBT) (Sigma Aldrich) at 650 nm.
An inoculum of synchronous P. falciparum (3D7 strain) parasitized red blood cells (PRBC) at 0.7% parasitaemia and 2% haematocrit in RPMI-1640, 5% AlbuMAX, 2% D-sucrose, 0.3% glutamine and 150 μM hypoxanthine was used for the assay.
Compound master plates (384-well) were prepared by a 10 pt serial dilution of compounds, from 1 mM to 50.8 nM, in columns 3-12 and 13-22. DMSO was dispensed into columns 1 and 23 of the compound master plate to be used as the positive growth control (100% viability). […] Intermediate compound dilution plates were prepared by dispensing 1 μl from each well of the compound master plate into 11.5 μl of RPMI/AlbuMAX growth media. Duplicate assay plates (384-well) were then prepared by dispensing 0.5 μL of compound from the intermediate dilution plates into 9.5 μl of RPMI/AlbuMAX growth media. The parasite inoculum (30 μL) was dispensed into the assay plates containing compounds using a Multidrop dispenser (Thermo Scientific) such that the final assay volume was 40 μL and final compound concentration was 1 μM-0.05 nM (the volume of compound addition can be adjusted to the preferred and agreed screening concentration). The final DMSO concentration was 0.1% (ideally 0.2% to limit toxicity to parasites), but this is dependent on volume of compound DMSO stock solution that can be supplied. Plates were incubated at 37° C. for 72 h in an atmosphere of 5% CO2, 5% O2, […].
After 72 h of incubation, plates were frozen at −80° C. overnight and then thawed at room temperature for at least 4 h. To evaluate LDH activity, 45 μL of freshly made reaction mix (174 mM sodium L-lactate (Sigma Aldrich), 214 μM 3-acetyl pyridine adenine dinucleotide (APAD) (Sigma Aldrich), 270 μM nitro blue tetrazolium chloride (NBT) (Sigma Aldrich), 4.35 U/mL diaphorase (from Clostridium kluyveri) (Sigma Aldrich), 0.7% Tween 20, 100 mM Tris-HCl pH 7.5) was dispensed using a Multidrop dispenser (Thermo Scientific). Plates were shaken to ensure mixing and absorbance at 650 nm was monitored using a Perkin Elmer Envision plate reader after 30 min of incubation at room temperature. Data were normalized to percent growth inhibition using positive and negative controls, and analysed using TIBCO Spotfire software. […]
One may read the IC50 as the concentration at which inhibition is half-maximal. Compound `CC(C)[C@]1(C)CC(=O)N(C(c2ccccc2)c2cccc(C(=O)N3Cc4nccnc4C3)c2)C(=N)N1` (stereo partly drawn) [Compound 52] gave an IC50 of 270 nM.

`CC(C)[C@]1(C)CC(=O)N(Cc2cc(F)cc(C(=O)N[C@@H](C)c3ccccc3)c2)C(=N)N1` [Compound 24] registered an IC50 of 48.8 nM. Under `CC(C)[C@]1(C)CC(=O)N(Cc2cccc(N3C[C@@H](c4ccccc4)CC3=O)c2)C(=N)N1` [Compound 15] stands 7.74 nM; under `N=C1N[C@](CC2CC2)(c2ccccc2)CC(=O)N1Cc1ccc(-c2ccccc2)c(C(=O)N2Cc3nccnc3C2)c1` [Compound 8], 3.42 nM.

Compound `CC1(C)CC(=O)N(C(c2ccccc2)c2cccc(C(=O)N3Cc4ccccc4C3)c2)C(=N)N1` (stereo not drawn) [Compound 54] yielded an IC50 of 390 nM.

`CC(C)[C@]1(C)CC(=O)N([C@@H](C)c2cccc(N3C[C@H](c4ccccc4)CC3=O)c2)C(=N)N1` [Compound 26] showed an IC50 of 371 nM.

For `COCCC[C@H](NC(=O)c1cc(F)cc(CN2C(=N)N[C@](C)(C(C)C)CC2=O)c1)c1ccccc1` [Compound 14], the IC50 amounted to 6.62 nM. For the compound `CC(C)[C@]1(C)CC(=O)N(Cc2ccc(C(=O)N[C@@H](C)c3cccc(F)c3)s2)C(=N)N1` [Compound 3], the IC50 stood at 1.37 nM. In turn, `C[C@H](NC(=O)c1cc(F)cc(CN2C(=N)NCC(c3ccccc3)C2=O)c1)c1ccccc1` (stereo partly drawn) [Compound 49] came in with an IC50 of 770 nM.
